# Assay results from patent publication US9988397B2, “ERK inhibitors” (Merck Sharp & Dohme Corp., priority 2014, dated 2018).
# Target: phosphorylated active hERK2 enzyme (Homo sapiens, UniProt P28482)
# Assay: Active human ERK2 (hERK2) Activity Assay (IMAP-FP)
# Type: biochemical
# Conditions: 10 point titration, 3 μM starting concentration, 0.5 nM hERK2, 30 μM ATP, 60 minutes reaction
# Method: Activated ERK2 activity was determined in an IMAP-FP assay (Molecular Devices). Using this assay format, the potency (IC50) of each compound was determined from a 10 point (1:3 serial dilution, 3 μM starting compound concentration) titration curve using the following outlined procedure. […] Following a 15 minute compound & enzyme incubation, each reaction was initiated by the addition of 10 μL kinase buffer containing 2.45 μM ERK2 IMAP substrate peptides and 75 μM ATP. The final reaction in each well of 25 μL consists of 0.5 nM hERK2, 900 nM unlabeled peptide, 80 nM labeled-peptide, and 30 μM ATP. Phosphorylation reactions were allowed to proceed for 60 minutes and were immediately quenched by the addition of 60 μL IMAP detection beads (1:1000 dilutions) in IMAP binding buffer (Molecular Devices) with 24 mM NaCl. Plates were read on EnVision reader after 60 minutes binding equilibration using Fluorescence Polarization protocol (Perkin Elmer).
# Chain of phosphorylated active hERK2 enzyme (P28482 whole entry): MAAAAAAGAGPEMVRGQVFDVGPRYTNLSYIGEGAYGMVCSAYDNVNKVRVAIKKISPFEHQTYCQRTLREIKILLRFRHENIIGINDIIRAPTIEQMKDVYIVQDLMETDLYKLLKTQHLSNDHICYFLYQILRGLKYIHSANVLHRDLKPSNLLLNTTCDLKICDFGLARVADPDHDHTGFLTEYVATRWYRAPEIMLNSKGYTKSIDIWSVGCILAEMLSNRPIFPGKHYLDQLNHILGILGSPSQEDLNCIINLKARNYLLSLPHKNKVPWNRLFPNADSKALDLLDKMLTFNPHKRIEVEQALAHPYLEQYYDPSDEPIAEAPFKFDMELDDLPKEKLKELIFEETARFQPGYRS
row,IC50 [µM],SMILES
1,0.734,"CCn1ncc2cc3nc(c21)CCCOC(C)(C)[C@@H](c1ccccc1)NC(=O)N3 [Example 12, (9R)-1-Ethyl-10,10-dimethyl-9-phenyl-1,6,9,10,13,14-hexahydro-12H-5,15-(azeno)pyrazolo[4,3-i][1,4,6]oxadiazacyclotetradecin-7(8H)-one]"
2,0.0328,"CCn1ncc2cc3nc(c21)C[C@@H](OC)COC[C@@H](c1ccccc1)NC(=O)N3 (stereo in doubt) [Example 44, (9R,13R)-1-Ethyl-13-methoxy-9-phenyl-1,6,9,10,13,14-hexahydro-12H-5,15-(azeno)pyrazolo[4,3-i][1,4,6]oxadiazacyclotetradecin-7(8H)-one]"
3,0.0589,"Cn1ncc2cc3nc(c21)OCCCC[C@H](c1ccccc1)NC(=O)N3 [Example 17, (9R)-1-Methyl-9-phenyl-1,6,8,9,10,11,12,13-octahydro-7H-5,15-(azeno)pyrazolo [3,4-c][1,7,9]oxadiazacyclotetradecin-7-one]"
4,0.114,"CCn1ncc2cc3nc(c21)CC(C)(O)COC[C@H](c1ccccc1)NC(=O)N3 (stereo partly drawn) [Example 5, (9S)-1-Ethyl-13-hydroxy-13-methyl-9-phenyl-1,6,9,10,13,14-hexahydro-12H-5,15-(azeno)pyrazolo[4,3-i][1,4,6]oxadiazacyclotetradecin-7(8H)-one]"
5,0.0485,"CCn1ncc2cc3nc(c21)CCCO[C@H]([C@H](C)O)[C@H](c1ccccc1)NC(=O)N3 [Example 46, (9 S,10 S)-1-Ethyl-10-[(1 S)-1-hydroxyethyl]-9-phenyl-1,6,9,10,13,14-hexahydro-12H-5,15-(azeno)pyrazolo[4,3-i][1,4,6]oxadiazacyclotetradecin-7(8H)-one]"
6,0.0125,"O=C1Nc2cc3cnn(C(F)F)c3c(n2)CCCOC[C@H](c2ccccc2)N1 [Example 9, (9S)-1-(Difluoromethyl)-9-phenyl-1,6,9,10,13,14-hexahydro-12H-5,15-(azeno)pyrazolo[4,3-i][1,4,6]oxadiazacyclotetradecin-7(8H)-one]"
7,0.00517,"C=C1COC[C@H](c2ccccc2)NC(=O)Nc2cc3cnn(CC)c3c(n2)C1 [Example 57, (9 S)-1-ethyl-13-methylidene-9-phenyl-1,6,9,10,13,14-hexahydro-12H-5,15-(azeno)pyrazolo[4,3-i][1,4,6]oxadiazacyclotetradecin-7(8H)-one]"
8,0.00416,"O=C1Nc2cc3cnn(C(F)F)c3c(n2)/C=C\COC[C@H](c2ccccc2)N1 [Example 10, (9S,13Z)-1-(Difluoromethyl)-9-phenyl-1,6,9,10-tetrahydro-12H-5,15-(azeno)pyrazolo[4,3-i][1,4,6]oxadiazacyclotetradecin-7(8H)-one]"
9,0.0162,"CCn1ncc2cc3nc(c21)CCCOC(C)(C)[C@H](c1ccccc1)NC(=O)N3 [Example 11, (9S)-1-Ethyl-10, 10-dimethyl-9-phenyl-1,6,9,10,13,14-hexahydro-12H-5,15-(azeno)pyrazolo [4,3-i][1,4,6]oxadiazacyclotetradecin-7(8H)-one]"
10,0.00509,"CCn1ncc2cc3nc(c21)CC(CO)COC[C@H](c1ccccc1)NC(=O)N3 (stereo partly drawn) [Example 58, (9 S)-1-ethyl-13-(hydroxymethyl)-9-phenyl-1,6,9,10,13,14-hexahydro-12H-5,15-(azeno)pyrazolo[4,3-i][1,4,6]oxadiazacyclotetradecin-7(8H)-one]"
11,0.276,"CN1CCCC(c2ccccc2)NC(=O)Nc2cc3cnn(C)c3c(n2)C1 (stereo not drawn) [Example 33, 1,13-Dimethyl-9-phenyl-1,6,9,10,11,12,13,14-octahydro-5,15-(azeno)pyrazolo[3,4-k][1,3,8]triazacyclotetradecin-7(8H)-one]"
12,0.0492,"Cn1ncc2cc3nc(c21)OCCOC[C@H](c1ccccc1)NC(=O)N3 [Example 29, (9S)-1-methyl-9-phenyl-1,6,9,10,12,13-hexahydro-5,15-(azeno)pyrazolo[4,3-i][1,12,4,6]dioxadiazacyclotetradecin-7(8H)-one]"

# Second part, the compound before the results:
row,SMILES,IC50 [µM]
1,"Cn1ncc2cc3nc(c21)NCCCC[C@H](c1ccccc1)NC(=O)N3 [Example 19, (9R)-1-Methyl-9-phenyl-1,6,9,10,11,12,13,14-octahydro-5,15-(azeno)pyrazolo[4,3-f][1,3,9]triazacyclotetradecin-7(8 H)-one]",0.00932
2,"CCn1ncc2cc3nc(c21)C[C@@H](O)COC[C@H](c1ccc(Cl)c(F)c1)NC(=O)N3 [Example 53, (9S,13R)-1-Ethyl-9-(4-chloro-3-fluorophenyl)-13-hydroxy-1,6,9,10,13,14-hexahydro-12H-5,15-(azeno)pyrazolo[4,3-i][1,4,6]oxadiazacyclotetradecin-7(8H)-one]",0.00391
3,"COCCCn1ncc2cc3nc(c21)Cn1cc(nn1)CC(c1ccccc1)NC(=O)N3 (stereo not drawn) [Example 37, 1-(3-Methoxypropyl)-9-phenyl-1,6,9,10-tetrahydro-5,16-(azeno)-14,11-(metheno)pyrazolo[4,3-l][1,2,3,7,9]pentaazacyclopentadecin-7(8H,15H)-one]",0.241
4,"CCn1ncc2cc3nc(c21)CCCO[C@@H]([C@H](C)O)[C@@H](c1ccccc1)NC(=O)N3 [Example 48, (9R,10R)-1-Ethyl-10-[(1S)-1-hydroxyethyl]-9-phenyl-1,6,9,10,13,14-hexahydro-12H-5,15-(azeno)pyrazolo[4,3-i][1,4,6]oxadiazacyclotetradecin-7(8H)-one]",0.00411
5,"CCn1ncc2cc3nc(c21)CCCO[C@H]([C@@H](C)O)[C@H](c1ccccc1)NC(=O)N3 [Example 45, (9 S,10 S)-1-Ethyl-10-[(1R)-1-hydroxyethyl]-9-phenyl-1,6,9,10,13,14-hexahydro-12H-5,15-(azeno)pyrazolo[4,3-i][1,4,6]oxadiazacyclotetradecin-7(8H)-one]",0.287
6,"CCn1ncc2cc3nc(c21)CCCO[C@H](CO)[C@H](c1ccccc1)NC(=O)N3 [Example 14, (9S,10S)-1-Ethyl-10-(hydroxymethyl)-9-phenyl-1,6,9,10,13,14-hexahydro-12H-5,15-(azeno)pyrazolo[4,3-i][1,4,6]oxadiazacyclotetradecin-7(8H)-one]",0.00344
7,"CCn1ncc2cc3nc(c21)/C=C\COC(C)(C)[C@H](c1ccccc1)NC(=O)N3 [Example 41, (9S,13Z)-1-Ethyl-10,10-dimethyl-9-phenyl-1,6,9,10-tetrahydro-12H-5,15-(azeno)pyrazolo [4,3-i][1,4,6]oxadiazacyclotetradecin-7(8H)-one]",0.634
8,"CCn1ncc2cc3nc(c21)C[C@@H](O)COC[C@H](c1cccc(F)c1)NC(=O)N3 [Example 51, (9S,13R)-1-Ethyl-9-(3-fluorophenyl)-13-hydroxy-1,6,9,10,13,14-hexahydro-12H-5,15-(azeno)pyrazolo[4,3-i][1,4,6]oxadiazacyclotetradecin-7(8H)-one]",0.00391
9,"Cc1cc(-n2ncc3cc4nc(c32)Cn2cc(nn2)CC(c2ccccc2)NC(=O)N4)ccn1 (single isomer, unassigned) [Example 38, 1-(2-Methylpyridin-4-yl)-9-phenyl-1,6,9,10-tetrahydro-5,16-(azeno)-14,11-(metheno)pyrazolo[4,3-l][1,2,3,7,9]pentaazacyclopentadecin-7(8H,15H)-one]",0.0873
10,"CCn1ncc2cc3nc(c21)CCCO[C@@H](CO)[C@@H](c1ccccc1)NC(=O)N3 [Example 13, (9R,10R)-1-Ethyl-10-(hydroxymethyl)-9-phenyl-1,6,9,10,13,14-hexahydro-12H-5,15-(azeno)pyrazolo[4,3-i][1,4,6]oxadiazacyclotetradecin-7(8H)-one]",0.757
11,"Cn1ncc2cc3nc(c21)Cn1cc(nn1)CC(c1ccccc1)NC(=O)N3 (stereo not drawn) [Example 34, 1-methyl-9-phenyl-1,6,9,10-tetrahydro-5,16-(azeno)-14,11-(metheno)pyrazolo[4,3-l][1,2,3,7,9]pentaazacyclopentadecin-7(8H,15H)-one]",0.0899
12,"Cn1ncc2cc3nc(c21)OCCC[C@@H](O)[C@H](c1ccccc1)NC(=O)N3 [Example 24, (9S,10R)-10-Hydroxy-1-methyl-9-phenyl-1,6,8,9,10,11,12,13-octahydro-7H-5,15-(azeno)pyrazolo[3,4-c][1,7,9]oxadiazacyclotetradecin-7-one]",0.19
